From patent US10758473B2, “Extract of plant origin of globularia and method for obtaining said extract by in vitro plant culture” (Sederma, priority 2011, dated 2020)
Each block holds one compound with its values, some of them ahead of it.

Columns and labels:
[1] = molecular target: bovine serum albumin (BSA) (Bos taurus, UniProt P02769); experiment: Non-enzymatic glycation of BSA; type: biochemical
Method: 1) Non-Enzymatic Glycation of BSA
This simple test reproduces in vitro a stress to which regular skin proteins are subjected: their functional alteration by a non-enzymatic glycation phenomenon.
The study model used is a bovine serum albumin (BSA), which is contacted with a physiological reducing sugar, the fructose, giving a spontaneous and slow reaction between the two molecules that can be accelerated by temperature. In this test, the BSA and fructose are incubated in the presence or absence of the test products at 50° C. for 7 days. The glycation end products have a natural fluorescence that can be quantified using a fluorimeter (λex=360 nm and λem=460 nm). 0.03% Aminoguanidine is used as a positive control of glycation inhibition.
The anti-glycation effect of the extract of Globularia cordifolia was studied using a protein model, BSA and a natural reducing sugar, fructose which glycates, i.e. binds, to the protein in a non-enzymatic manner. The product of this binding is fluorescent and is monitored with a recording system.

intracellular peroxide = experiment: Endogenous peroxides in human keratinocytes (DCFH-DA probe); type: cell-based; settings: Trolox at 500 μm
Method: This factor can be measured reliably using a probe called DCFH-DA, whose characteristic is to fluoresce in contact with peroxides once it entered the cell. Confluence human keratinocytes were placed in contact or not (negative control) for 24 h with the Globularia cordifolia extract until they grew to confluence. The cells were then exposed to and metabolized the DCFH label in a buffer. The label can then react with both intracellular peroxides. The medium was then replaced with one containing or not the Globularia cordifolia extract and the oxidizing agent model hydrogen peroxide (neither the medium nor the Globularia cordifolia extract reacts directly with H2O2). Fluorescence was read in order to estimate the level of the intracellular peroxide which had reacted with the label. The number of cells was quantified using a nuclear labeling method (Hoechst 33258).

creatine kinase = experiment: Residual intracellular creatine kinase activity in human dermal fibroblasts after H2O2 stress; type: cell-based; settings: Trolox at 500 μm
Description: Creatine kinase is a ubiquitous enzyme which exists in two isoforms in the skin. It is used to store energy in cells and enables tissues to respond to urgent energy requirements. This enzyme converts creatine into phosphocreatine using ATP which is converted back to ADP. When necessary, the enzyme works in the reverse direction and returns energy. Its activity falls with age as it is one of the preferred targets of reactive oxygen groups. Maintaining and increasing the activity of this enzyme is therefore desirable. Human dermal fibroblasts were placed in contact with the Globularia cordifolia extract according to the invention for 3 days. The cells were then exposed without said extract to an oxidative stress (hydrogen peroxide). After a further 3 days' contact with the Globularia cordifolia extract, the cells were again exposed to the same oxidative stress before being homogenized to measure residual intracellular creatine kinase activity. Activity was measured from the production of ATP from phosphocreatine and ADP. ATP is then measured from an enzymatic reaction leading to the formation of NADPH, readed at 340 nm. Results were standardized by measuring total protein (BCA).

Glutathion = Glutathion synthesis in keratinocytes; type: cell-based; settings: Trolox at 0.012%
sirtuin-1 = experiment: Intracellular sirtuin-1 in human keratinocytes (ELISA); type: cell-based; settings: Trolox at 500 μm
Description: Hormetic effects such as calorie restriction or contact with hormetic molecules increase sirtuin enzymes and the lifespan of different organisms. The sirtuins act particularly on FOXO factor deacetylation and prevent triggering of the production of apoptotic proteins. The sirtuins also stimulate cellular anti-oxidant defenses and purification mechanisms (detoxification) and help to preserve mitochondrial function and therefore energy production. This increases survival and resistance to stresses. Human keratinocytes were cultured in the presence or absence of the Globularia cordifolia extract for 6 days and were then grinded and the intracellular levels of sirtuin-1 were measured using an ELISA method. Results were standardized by parallel measurement of total protein (BCA).

proteasome = experiment: Residual proteasome activity in human dermal fibroblasts after H2O2 stress; type: cell-based; settings: Trolox 500 μm
Description: Human dermal fibroblasts were placed or not (negative control) in contact with the Globularia cordifolia extract until they grew to confluence. The Globularia cordifolia extract was then removed and the cells were exposed to the oxidant model, hydrogen peroxide, to produce accelerated ageing. After this stage, the cells were again exposed to the Globularia cordifolia extract for 3 days and then were reseeded and subjected to a further oxidative stress to amplify the effect of the initial stress. The cells were then homogenized and the residual proteasome activity measured by monitoring cleavage of a model fluorescent peptide. Results were standardized by parallel measurement of protein.

[2] = tested on: SOD (superoxide dismutase); experiment: Intracellular SOD activity in human keratinocytes treated with hydrogen peroxide; type: cell-based; settings: Trolox at 0.012%
Description: A preliminary test on the antioxidant skin potential had shown that human keratinocytes treated with the hydrogen peroxide, a model of oxidative stress, increased their intracellular activity of SOD (superoxide dismutase) by 22%*(p<0.01) compared to the negative control in the presence of the Globularia cordifolia extract.

[3] = tested on: mitochondrial membrane potential; experiment: Mitochondrial membrane potential in fibroblasts after H2O2 stress; type: cell-based, human; settings: Trolox at 500 μm
Method: Human dermal fibroblasts were placed in contact with the Globularia cordifolia extract according to the invention for 3 days. The cells were then exposed without said extract to an oxidative stress (hydrogen peroxide). After a further 3 days' contact with the Globularia cordifolia extract, the cells were again exposed to the same oxidative stress before being homogenized to measure residual intracellular creatine kinase activity. Activity was measured from the production of ATP from phosphocreatine and ADP. ATP is then measured from an enzymatic reaction leading to the formation of NADPH, readed at 340 nm. Results were standardized by measuring total protein (BCA). A fall in this membrane potential is a warning sign of ageing and cell death and it is therefore essential that this be maintained to preserve the mitochondrial ability to produce ATP. Membrane potential was measured using a specific label sensitive to mitochondrial proton micro-variations. The label exists in two forms, monomeric and polymeric, which have different emission spectra. A high membrane potential promotes the polymeric form. An increase in the monomer/polymer ratio (520 nm/590 nm) produces therefore a fall in Δψ. A high ratio is therefore less conducive to cell survival than a lower ratio. The same fibroblast cultures than used for creatine kinase there above were used.

[4] = Anti-singlet-oxygen test (Rose Bengal, visible light, uric acid destruction); type: biochemical; settings: positive control, caffeic acid at 0002%
Description: Molecular oxygen (O2) plays a vital role as an acceptor of the respiratory chain terminal electrons. However, this metabolism and others, as well as external factors, such as UV radiations, lead to the occurrence of certain derivatives particularly reactive (singlet oxygen, hydroxyl radical, superoxide anion), which will cause oxidative damage to lipids, proteins and nucleic acids, even in healthy bodies. Singlet oxygen is one of these very energetic and highly reactive forms of oxygen. It is possible to produce experimentally in vitro singlet oxygen with dyes and UVA photons or visible light. The test presented thereafter uses the Rose Bengal, a dye and visible light. The purpose of this test is to evaluate the degradation of uric acid by singlet oxygen formed from the Rose Bengal, under the action of visible light. The visualization of the production of singlet oxygen is obtained by following the destruction of uric acid at 292 nm. In the presence of a compound capable of neutralizing singlet oxygen, this destruction will be slowed. The caffeic acid at 0002% is used as a positive control of an anti-singlet-oxygen activity Data in Table 3 below.

DPPH anti-radical test = type: biochemical; settings: positive control, 0003% of caffeic acid
Description: 2) DPPH Anti-Radical Test The DPPH (1, 1-diphenyl-2-picryl hydrazyl) is a stable free radical which is widely used for the detection of free radical scavengers. This molecule by losing its radical character is converted to DPPH2 (1, 1-diphenyl-2-picryl hydrazine). This conversion is accompanied by discoloration (purple→yellow) which can be monitored over time by spectrophotometry at 517 nm.

Chain of bovine serum albumin (BSA) (P02769 25-607): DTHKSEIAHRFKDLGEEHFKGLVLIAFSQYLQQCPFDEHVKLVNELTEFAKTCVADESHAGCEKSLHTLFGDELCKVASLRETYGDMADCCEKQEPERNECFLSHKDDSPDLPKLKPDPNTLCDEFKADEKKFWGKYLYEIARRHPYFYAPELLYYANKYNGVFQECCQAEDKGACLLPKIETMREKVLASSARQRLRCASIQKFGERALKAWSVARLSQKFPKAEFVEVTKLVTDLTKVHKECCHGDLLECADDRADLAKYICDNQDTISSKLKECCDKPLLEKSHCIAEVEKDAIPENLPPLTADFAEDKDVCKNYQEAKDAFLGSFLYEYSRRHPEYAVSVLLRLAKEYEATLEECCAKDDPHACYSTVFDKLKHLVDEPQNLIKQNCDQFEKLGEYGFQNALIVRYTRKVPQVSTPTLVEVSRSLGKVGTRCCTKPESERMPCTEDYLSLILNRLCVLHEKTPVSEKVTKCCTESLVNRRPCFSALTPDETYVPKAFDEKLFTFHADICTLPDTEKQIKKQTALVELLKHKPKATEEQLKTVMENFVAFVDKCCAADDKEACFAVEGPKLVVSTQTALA

glycation inhibition versus the control ([1]; positive control, 0.03% Aminoguanidine): 85%
Structure (SMILES): N=C(N)NN [Aminoguanidine]
Glycation % Change, positive control ([1]; aminoguanidine at 0.03%): Positive control aminoguanidine at 0.03%: −85%; p < 0.01.

Structure (SMILES): Cc1c(C)c2c(c(C)c1O)CCC(C)(C(=O)O)O2 (centres unmarked) [Trolox]
Intracellular peroxide % Change, positive control (intracellular peroxide): Positive control Trolox at 500 μm: −91%; (p < 0.01).
Creatin kinase activity % Change, positive control (creatine kinase): Positive control Trolox at 500 μm: +28%; p < 0.05.
GSH, positive control (Glutathion): 53%
Sirtuin-1 % Change, positive control (sirtuin-1): Positive control Trolox at 500 μm: +27%; p < 0.05.
proteasome activity % Change, positive control (proteasome): Positive control Trolox 500 μm: +24%; (p < 0.05).
SOD, positive control [2]: 21%
Mitochondrial membrane potential % Change, positive control [3]: Positive control Trolox at 500 μm: +36%; p < 0.05.

Structure (SMILES): O=C(O)/C=C/c1ccc(O)c(O)c1 [caffeic acid]
anti-singlet-oxygen activity versus the control [4]: +73%
anti-radical activity versus the control (DPPH anti-radical test): −85%
